For 28 compounds, AC50 results are on record in US20250262201A1, “COMPOUNDS AND METHODS USEFUL FOR STABILIZING PHENYLALANINE HYDROXYLASE MUTATIONS” (Agios Pharmaceuticals, Inc., priority 2022, published 2025).

Each structure is given as a SMILES string. Where only a bound is given, the exact number is not on record here.

For one assay, the target named is T1, human PAH with the R408W mutation (Homo sapiens, UniProt P00439, R408W).
T1 construct: expressed in transfected cells
T1 sequence (P00439 1-452 R408W): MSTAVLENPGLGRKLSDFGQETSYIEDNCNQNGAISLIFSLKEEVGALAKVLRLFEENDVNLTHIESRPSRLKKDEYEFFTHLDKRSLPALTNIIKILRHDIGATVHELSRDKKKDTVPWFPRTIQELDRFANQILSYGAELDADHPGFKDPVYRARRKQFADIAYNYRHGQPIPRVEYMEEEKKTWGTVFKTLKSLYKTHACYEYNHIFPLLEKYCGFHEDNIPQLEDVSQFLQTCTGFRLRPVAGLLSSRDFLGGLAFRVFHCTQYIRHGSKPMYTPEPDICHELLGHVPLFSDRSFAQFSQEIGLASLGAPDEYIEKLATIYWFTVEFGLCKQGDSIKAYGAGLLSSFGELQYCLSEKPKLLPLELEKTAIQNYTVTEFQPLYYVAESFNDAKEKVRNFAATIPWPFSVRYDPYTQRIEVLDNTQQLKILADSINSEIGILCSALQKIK
Put plainly: Cell Based Phenylalanine Flux Assay. Also noted: scale not given here. The following applies: A375 R408W cells, 24 hrs with compound, then 20 μM sepiapterin and 800 μM 13C9,15N-Phenylalanine for 4 hours; 13C-Tyrosine by LC-MS; average where tested multiple times.
On to `CC1CN(C(=O)c2oc(C(C)(C)O)nc2C(F)(F)F)C(c2cc3ccccc3cn2)c2nc[nH]c21` [(4R,7R) diastereomer of (2-(2-hydroxypropan-2-yl)-4-(trifluo], for which the AC50 result was “E, E,”.

In the case of `CC1CN(C(=O)c2oc(C(C)(C)O)nc2C(F)(F)F)C(c2cc3ccccc3cn2)c2nc[nH]c21` [(4R, 7S) diastereomer of (2-(2-hydroxypropan-2-yl)-4-(triflu], the AC50 result is “E, E,”.

With `CC1CN(C(=O)c2nnc(C(C)(C)O)o2)C(c2cc3ccccc3cn2)c2nc[nH]c21` [(4S, 7R) diastereomer of 2-{5-[4-(isoquinolin-3-yl)-7-methyl], the half-maximal activity concentration (AC50) entry was “E, E”.

Turning to `Cc1nnc(C(=O)N2CC(C)c3[nH]cnc3C2c2cc3ccccc3cn2)o1` [(4S, 7R) diastereomer of 3-[7-methyl-5-(5-methyl-1,3,4-oxadi], the AC50 entry is recorded as “E, E”.

The assay is the same for the next values; noted with them: A375 cells expressing human R408W PAH; 24 hrs compound incubation; 13C-Tyrosine by LC-MS; average where tested multiple times; read-out: AC50.
As for `Cc1nc(C(C)(C)C#N)oc1C(=O)N1CCc2[nH]cnc2C1c1ccc2ccccc2n1` (stereo in doubt) [Example 118, (R)-2-methyl-2-(4-methyl-5-(4-(quinolin-2-yl)-4,5,6,7-tetrahydro-1H-imidazo[4,5-c]pyridine-5-carbonyl)oxazol-2-yl)propanenitrile], the AC50 is under 0.5 µM.

Turning to `C[C@@H](O)c1nc(C(F)F)c(C(=O)N2CCc3[nH]cnc3C2c2ccc3ccccc3n2)o1` (stereo in doubt) [Example 119, (4-(difluoromethyl)-2-((R)-1-hydroxyethyl)oxazol-5-yl)((S)-4-(quinolin-2-yl)-6,7-dihydro-1H-imidazo[4,5-c]pyridin-5(4H)-yl)methanone], the AC50 is 1 to 5 µM.

As for `C[C@@H](O)c1nc(C(F)F)c(C(=O)N2CCc3[nH]cnc3C2c2ccc3ccccc3n2)o1` (stereo in doubt) [Example 120, (4-(difluoromethyl)-2-((R)-1-hydroxyethyl)oxazol-5-yl)((R)-4-(quinolin-2-yl)-6,7-dihydro-1H-imidazo[4,5-c]pyridin-5(4H)-yl)methanone], the concentration at half-maximal activity (AC50) was under 0.5 µM.

Turning to `C[C@H](O)c1nc(C(F)F)c(C(=O)N2CCc3[nH]cnc3C2c2ccc3ccccc3n2)o1` (stereo in doubt) [Example 121, (4-(difluoromethyl)-2-((S)-1-hydroxyethyl)oxazol-5-yl)((S)-4-(quinolin-2-yl)-6,7-dihydro-1H-imidazo[4,5-c]pyridin-5(4H)-yl)methanone], the AC50 is 1 to 5 µM.

Take `C[C@H](O)c1nc(C(F)F)c(C(=O)N2CCc3[nH]cnc3C2c2ccc3ccccc3n2)o1` (stereo in doubt) [Example 122, (4-(difluoromethyl)-2-((S)-1-hydroxyethyl)oxazol-5-yl)((R)-4-(quinolin-2-yl)-6,7-dihydro-1H-imidazo[4,5-c]pyridin-5(4H)-yl)methanone]: the AC50 is under 0.5 µM.

In the case of `O=C(c1cn[nH]c1Cl)N1CCc2[nH]cnc2C1c1ccc2ccccc2n1` (stereo in doubt) [Example 123, (S)-(5-chloro-1H-pyrazol-4-yl)(4-(quinolin-2-yl)-6,7-dihydro-1H-imidazo[4,5-c]pyridin-5(4H)-yl)methanone], the AC50 was 1 to 5 µM.

On to `O=C(c1cn[nH]c1Cl)N1CCc2[nH]cnc2C1c1ccc2ccccc2n1` (stereo in doubt) [Example 124, (R)-(5-chloro-1H-pyrazol-4-yl)(4-(quinolin-2-yl)-6,7-dihydro-1H-imidazo[4,5-c]pyridin-5(4H)-yl)methanone], for which the AC50 lay within 0.5 to 1 µM.

For the compound `O=C(c1cnn(CC(F)(F)F)c1C(F)F)N1CCc2[nH]cnc2C1c1ccc2ccccc2n1` (stereo in doubt) [Example 125, (R)-(5-(difluoromethyl)-1-(2,2,2-trifluoroethyl)-1H-pyrazol-4-yl)(4-(quinolin-2-yl)-6,7-dihydro-1H-imidazo[4,5-c]pyridin-5(4H)-yl)methanone], the AC50 fell in the range of 1 to 5 µM.

`O=C(c1cnn(CC(F)(F)F)c1C(F)F)N1CCc2[nH]cnc2C1c1ccc2ccccc2n1` (stereo in doubt) [Example 126, (S)-(5-(difluoromethyl)-1-(2,2,2-trifluoroethyl)-1H-pyrazol-4-yl)(4-(quinolin-2-yl)-6,7-dihydro-1H-imidazo[4,5-c]pyridin-5(4H)-yl)methanone]: the AC50 was over 5 µM.

On to `CC(C)(C#N)c1nc(C(F)F)c(C(=O)N2CCc3[nH]cnc3C2c2ccc3ccccc3n2)o1` (stereo in doubt) [Example 127, (S)-2-(4-(difluoromethyl)-5-(4-(quinolin-2-yl)-4,5,6,7-tetrahydro-1H-imidazo[4,5-c]pyridine-5-carbonyl)oxazol-2-yl)-2-methylpropanenitrile], for which the AC50 is 1 to 5 µM.

In the case of `CC(C)(C#N)c1nc(C(F)F)c(C(=O)N2CCc3[nH]cnc3C2c2ccc3ccccc3n2)o1` (stereo in doubt) [Example 128, (R)-2-(4-(difluoromethyl)-5-(4-(quinolin-2-yl)-4,5,6,7-tetrahydro-1H-imidazo[4,5-c]pyridine-5-carbonyl)oxazol-2-yl)-2-methylpropanenitrile], the AC50 was under 0.5 µM.

Regarding `O=C(c1oc(C2(O)CC2)nc1C(F)F)N1CCc2[nH]cnc2C1c1ccc2ccccc2n1` (stereo in doubt) [Example 129, (S)-(4-(difluoromethyl)-2-(1-hydroxycyclopropyl)oxazol-5-yl)(4-(quinolin-2-yl)-6,7-dihydro-1H-imidazo[4,5-c]pyridin-5(4H)-yl)methanone], the AC50 is 1 to 5 µM.

In the case of `O=C(c1oc(C2(O)CC2)nc1C(F)F)N1CCc2[nH]cnc2C1c1ccc2ccccc2n1` (stereo in doubt) [Example 130, (R)-(4-(difluoromethyl)-2-(1-hydroxycyclopropyl)oxazol-5-yl)(4-(quinolin-2-yl)-6,7-dihydro-1H-imidazo[4,5-c]pyridin-5(4H)-yl)methanone], the AC50 was under 0.5 µM.

Take `CC(C)(C)c1ncc(C(=O)N2CCc3[nH]cnc3C2c2ccc3ccccc3n2)o1` (stereo in doubt) [Example 258, (R)-(2-(tert-butyl)oxazol-5-yl)(4-(quinolin-2-yl)-6,7-dihydro-1H-imidazo[4,5-c]pyridin-5(4H)-yl)methanone]: the AC50 is under 0.5 µM.

Regarding `O=C(c1cn[nH]c1C(F)F)N1CCc2[nH]cnc2C1c1ccc2ccccc2n1` (stereo in doubt) [Example 259, (R)-(5-(difluoromethyl)-1H-pyrazol-4-yl)(4-(quinolin-2-yl)-6,7-dihydro-1H-imidazo[4,5-c]pyridin-5(4H)-yl)methanone], the AC50 is under 0.5 µM.

Consider `O=C(c1ccnn1-c1ccccn1)N1CCc2[nH]cnc2C1c1ccc2ccccc2n1` (stereo in doubt) [Example 261, (R)-(1-(pyridin-2-yl)-1H-pyrazol-5-yl)(4-(quinolin-2-yl)-6,7-dihydro-1H-imidazo[4,5-c]pyridin-5(4H)-yl)methanone], for which the AC50 is under 0.5 µM.

Consider `Cn1nc(Cl)cc1C(=O)N1CCc2[nH]cnc2C1c1ccc2ccccc2n1` (stereo in doubt) [Example 263, (R)-(3-chloro-1-methyl-1H-pyrazol-5-yl)(4-(quinolin-2-yl)-6,7-dihydro-1H-imidazo[4,5-c]pyridin-5(4H)-yl)methanone], for which the AC50 was under 0.5 µM.

In the case of `Cn1nc(Cl)nc1C(=O)N1CCc2[nH]cnc2C1c1ccc2ccccc2n1` (stereo in doubt) [Example 265, (R)-(3-chloro-1-methyl-1H-1,2,4-triazol-5-yl)(4-(quinolin-2-yl)-6,7-dihydro-1H-imidazo[4,5-c]pyridin-5(4H)-yl)methanone], the AC50 was in the range of 0.5 to 1 µM.

With `Nc1cc(C(=O)N2CCc3[nH]cnc3C2c2ccc3ccccc3n2)n(C(F)F)n1` (stereo in doubt) [Example 267, (R)-(3-amino-1-(difluoromethyl)-1H-pyrazol-5-yl)(4-(quinolin-2-yl)-6,7-dihydro-1H-imidazo[4,5-c]pyridin-5(4H)-yl)methanone], the AC50 lay within 0.5 to 1 µM.

On to `CCn1cnnc1C(=O)N1CCc2[nH]cnc2C1c1ccc2ccccc2n1` (stereo in doubt) [Example 270, (R)-(4-ethyl-4H-1,2,4-triazol-3-yl)(4-(quinolin-2-yl)-6,7-dihydro-1H-imidazo[4,5-c]pyridin-5(4H)-yl)methanone], for which the AC50 is 0.5 to 1 µM.

For `O=C(CCc1nccs1)N1CCc2[nH]cnc2C1c1ccc2ccccc2n1` (stereo in doubt) [Example 271, (R)-1-(4-(quinolin-2-yl)-6,7-dihydro-1H-imidazo[4,5-c]pyridin-5(4H)-yl)-3-(thiazol-2-yl)propan-1-one], the half-maximal activity concentration (AC50) lay within 0.5 to 1 µM.

Take `O=C(CCc1nccs1)N1CCc2[nH]cnc2C1c1ccc2ccccc2n1` (stereo in doubt) [Example 272, (S)-1-(4-(quinolin-2-yl)-6,7-dihydro-1H-imidazo[4,5-c]pyridin-5(4H)-yl)-3-(thiazol-2-yl)propan-1-one]: the AC50 is over 5 µM.

For the compound `O=C(c1cnc(-c2ccc(F)cn2)s1)N1CCc2[nH]cnc2C1c1cc2ccccc2cn1` (stereo in doubt) [Example 312, (R)-(2-(5-fluoropyridin-2-yl)thiazol-5-y1)(4-(isoquinolin-3-yl)-6,7-dihydro-1H-imidazo[4,5-c]pyridin-5(4H)-yl)methanone], the AC50 is under 0.5 µM.

Take `O=C(c1nnc(C2CC2)o1)N1CCc2[nH]cnc2C1c1cc2ccccc2cn1` (stereo in doubt) [Example 327, (S)-(5-cyclopropyl-1,3,4-oxadiazol-2-yl)(4-(isoquinolin-3-y1)-6,7-dihydro-1H-imidazo[4,5-c]pyridin-5(4H)-yl)methanone]: the AC50 is over 5 µM.
